Test results reported in patent publication US20060178374A1, “Aminoheteroaryl compounds as protein kinase inhibitors” (AGOURON PHARMACEUTICALS, INC., priority 2004, published 2006).

Target: HGFR (c-Met) (Homo sapiens, UniProt P08581)
Test: HGFR Continuous-Coupled Spectrophotometric Assay
Type: biochemical
Conditions: for Ki: HGFR enzyme 50 nM, Met-2 peptide substrate, 37° C.; for inhibition at 1 µM: compound at 1 μM
Experimental: The general procedure is as follows: compounds and kinase assay reagents are introduced into test wells. The assay is initiated by addition of the kinase enzyme. Enzyme inhibitors reduce the measured activity of the enzyme.
In the continuous-coupled spectrophotometric assay the time-dependent production of ADP by the kinase is determined by analysis of the rate of consumption of NADH by measurement of the decrease in absorbance at 340 nm. As the PK produces ADP it is re-converted to ATP by reaction with phosphoenol pyruvate and pyruvate kinase. Pyruvate is also produced in this reaction. Pyruvate is subsequently converted to lactate by reaction with lactate dehydrogenase, which simultaneously converts NADH to NAD.
HGFR Continuous-Coupled Spectrophotometric Assay
This assay analyzes the tyrosine kinase activity of HGFR on the Met-2 substrate peptide, a peptide derived from the activation loop of the HGFR.
• 1. […] Dissolve up in 200 mM HEPES, pH 7.5 at 10 mM stock. • 3. 1 M PEP (phospho-enol-pyruvate) in 200 mM HEPES, pH 7.5 • 4. 100 mM NADH (B-Nicotinamide Adenine Dinucleotide, Reduced Form) in 200 mM HEPES, pH 7.5 • 5. 4 M MgCl2 (Magnesium Chloride) in ddH2O 6. 1 M DTT (Dithiothreitol) in 200 mM HEPES, pH 7.5 • 7. 15 Units/mL LDH (Lactic Dehydrogenase) • 8. 15 Units/mL PK (Pyruvate Kinase) • 9. 5M NaCl dissolved in ddH2O • 10. Tween-20 (Protein Grade) 10% Solution • 11. 1 M HEPES buffer: (N-[2-Hydroxethyl]piperazine-N-[2-ethanesulfonic acid]) Sodium Salt. Dissolve in ddH2O, adjust pH to 7.5, bring volume to 1 L. Filter at 0.1 μm. • 12. […] 100% DMSO (SIGMA) • 14. […] Beckman DU-650 w/ micro cell holders • 18. Beckman 4-position micro cell cuvette Procedure:
Prep Dilution Buffer (DB) for Enzyme (For 30 mL prep) • 1. DB final concentration is 2 mM DTT, 25 mM NaCl2, 5 mM MgCl2, 0.01% Tween-20, and 50 mM HEPES buffer, pH 7.5. • 2. Make up 50 mM HEPES by adding 1.5 mL 1 M HEPES into 28.1 mL of ddH2O. Add rest of the reagents. Into 50 mL conical vial, add 60 μL of 1M DTT, 150 μL 5M NaCl2, 150 μL 1M MgCl2, and 30 μL of 10% Tween-20 to give total volume of 30 mL. • 3. Vortex for 5-10 seconds. • 4. Aliquot out DB at 1 mL/tube and label tubes as “DB HGFR” • 5. Note: This can be prepared and stored ahead of time. • 6. Freeze un-used aliquots in microcentrifuge tubes at −20° C. freezer.
Prep Compounds • 1. For compound dilution plate, add 4 μL of 10 mM stock into column 1 of plate, and bring volume to 100 μL with 100% DMSO. • 2. Set up the Precision 2000 dilution method. A final concentration of 200 μM compound in 50% DMSO, 100 mM HEPES (1:2 serial dilution).
Prep Coupled Enzymatic Buffer:
1. Final concentration in assay:
• 2. For a 10 mL reaction buffer add 10 μL of 1M PEP, 33 μL of 100 mM NADH, 50 μL of 4M MgCl2, 20 μL of 1M DTT, 6 μL of 500 mM ATP, and […] of 10 mM Met-2 peptide into 100 mM HEPES buffer pH 7.5 and vortex/mix. • 3. Add coupling enzymes, LDH and PK, into reaction mix. Mix by gentle inversion.
1. Spectrophotometer settings:
• 2. Add 85 μL of CE reaction mix into each well of assay plate. • 3. Add 5 μL of diluted compound into a well of the assay plate. • 4. Add 5 μL of 50% DMSO for negative control into last column of assay plate. • 5. Mix with multi-channel pipettor or orbital shaker. • 6. Pre-incubate for 10 minutes at 37° C. • 7. Add 10 μL of 500 nM HGFR to each well of assay plate; the final HGFR concentration is 50 nM in a total final volume of 100 μL. • 8. Measure activity for 10 minutes at λ=340 nm and 37° C.
Ki data were obtained using the HGFR Continuous-Coupled Spectrophotometric Assay, and IC50 data were obtained using the Cellular HGFR Autophosphorylation Assay, both of which are described above.

Chain of HGFR (c-Met) (P08581 974-1390): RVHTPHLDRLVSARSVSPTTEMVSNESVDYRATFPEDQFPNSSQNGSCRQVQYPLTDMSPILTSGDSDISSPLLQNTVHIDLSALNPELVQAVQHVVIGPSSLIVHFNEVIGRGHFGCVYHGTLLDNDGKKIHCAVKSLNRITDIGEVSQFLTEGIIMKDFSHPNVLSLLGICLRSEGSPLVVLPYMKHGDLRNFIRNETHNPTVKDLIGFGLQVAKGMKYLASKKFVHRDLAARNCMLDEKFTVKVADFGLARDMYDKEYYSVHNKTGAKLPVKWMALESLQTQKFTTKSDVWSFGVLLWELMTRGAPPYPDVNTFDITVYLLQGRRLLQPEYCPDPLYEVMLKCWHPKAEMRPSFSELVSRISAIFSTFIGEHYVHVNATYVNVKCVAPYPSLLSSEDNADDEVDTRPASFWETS

| SMILES | Ki | inhibition at 1 µM |
| --- | --- | --- |
| CCN(CCO)C(=O)c1ccc(-c2cnc(N)c(OC(C)c3c(Cl)ccc(F)c3Cl)c2)cc1 (centres unmarked) [Example 1, 4-{6-Amino-5-[1-(2,6-dichloro-3-fluorophenyl)ethoxy]-pyridin-3-yl}N-ethyl-N-(2-hydroxyethyl)benzamide] | 0.039 µM | 94% |
| CC(Oc1cc(-c2ccc(C(=O)N(C)CCC#N)cc2)cnc1N)c1c(Cl)ccc(F)c1Cl (centres unmarked) [Example 2, 4-{6-Amino-5-[1-(2,6-dichloro-3-fluorophenyl)ethoxy]pyridin-3-yl}-N-(2-cyanoethyl)-N-methylbenzamide] | 0.033 µM | 95% |
| CC(C)NC(=O)CN1CCN(C(=O)c2ccc(-c3cnc(N)c(OC(C)c4c(Cl)ccc(F)c4Cl)c3)cc2)CC1 (centres unmarked) [Example 3, 2-[4-(4-{6-Amino-5-[1-(2,6-dichloro-3-fluorophenyl)ethoxy]pyridin-3-yl}benzoyl)piperazin-1-yl]-N-isopropylacetamide] | 0.026 µM |  |
| COCCN1CCN(C(=O)c2ccc(-c3cnc(N)c(OC(C)c4c(Cl)ccc(F)c4Cl)c3)cc2)CC1 (centres unmarked) [Example 4] | 0.044 µM | 95% |
| CC(Oc1cc(-c2ccc(C(=O)N3CCS(=O)(=O)CC3)cc2)cnc1N)c1c(Cl)ccc(F)c1Cl (centres unmarked) [Example 5, 3-[1-(2,6-Dichloro-3-fluorophenyl)ethoxy]-5-{4-[(1,1-dioxidothiomorpholin-4-yl)carbonyl]phenyl)pyridine-2-amine] | 0.031 µM | 96% |
| CC(Oc1cc(-c2ccc(C(=O)N3CCC(N(C)C)CC3)cc2)cnc1N)c1c(Cl)ccc(F)c1Cl (centres unmarked) [Example 6] | 0.024 µM | 95% |
| CC(Oc1cc(-c2ccc(C(=O)N3CCN(C4CCN(C)CC4)CC3)cc2)cnc1N)c1c(Cl)ccc(F)c1Cl (centres unmarked) [Example 7, 3-[1-(2,6-Dichloro-3-fluorophenyl)ethoxy]-5-(4-{[4-(1-methylpiperidin-4-yl)piperazin-1-yl]carbonyl)phenyl)pyridin-2-amine] | 0.026 µM | 96% |
| CC(Oc1cc(-c2ccc(C(=O)N3CC[N@]4C[C@H]3C4)cc2)cnc1N)c1c(Cl)ccc(F)c1Cl (some centres unmarked) [Example 8, 5-[4-(1,4-Diazabicyclo[3.1.1]hept-4-ylcarbonyl)phenyl]-3-[1-(2,6-dichloro-3-fluorophenyl)ethoxy]pyridin-2-amine] | 0.02 µM | 94% |
| CNCCNC(=O)c1ccc(-c2cnc(N)c(OC(C)c3c(Cl)ccc(F)c3Cl)c2)cc1 (centres unmarked) [Example 9, 4-{6-Amino-5-[1-(2,6-dichloro-3-fluorophenyl)ethoxy]pyridin-3-yl}-N-[2-(methylamino)ethyl)benzamide] | 0.037 µM | 91% |
| CNCCCNC(=O)c1ccc(-c2cnc(N)c(OC(C)c3c(Cl)ccc(F)c3Cl)c2)cc1 (centres unmarked) [Example 10, 4-{6-Amino-5-[1-(2,6-dichloro-3-fluorophenyl)ethoxy]pyridin-3-yl}-N-[3-(methylamino)propyl)benzamide] | 0.037 µM | 89% |
| CC(Oc1cc(-c2ccc(C(=O)NCCCN)cc2)cnc1N)c1c(Cl)ccc(F)c1Cl (centres unmarked) [Example 11, 4-(6-Amino-5-[1-(2,6-dichloro-3-fluorophenyl)ethoxy]pyridin-3-yl}-N-(3-aminopropyl) benzamide] | 0.045 µM | 86% |
| CC(Oc1cc(-c2ccc(C(=O)NC3CCNCC3)cc2)cnc1N)c1c(Cl)ccc(F)c1Cl (centres unmarked) [Example 12, 4-{6-Amino-5-[1-(2,6-dichloro-3-fluorophenyl)ethoxy]pyridin-3-yl}-N-piperidin-4-ylbenzamide] | 0.041 µM | 86% |
| CC(Oc1cc(-c2ccc(C(=O)NCC3CCNCC3)cc2)cnc1N)c1c(Cl)ccc(F)c1Cl (centres unmarked) [Example 13, 4-{6-Amino-5-[1-(2,6-dichloro-3-fluorophenyl)ethoxy]pyridin-3-yl}-N-(piperidin-4-ylmethyl)benzamide] | 0.048 µM | 87% |
| CC(Oc1cc(-c2ccc(C(=O)NCC3CCNC3)cc2)cnc1N)c1c(Cl)ccc(F)c1Cl (centres unmarked) [Example 15, 4-{6-Amino-5-[1-(2,6-dichloro-3-fluorophenyl)ethoxy]pyridin-3-yl}-N-(pyrrolidin-3-ylmethyl)benzamide] | 0.071 µM | 85% |
| CC(Oc1cc(-c2ccc(C(=O)NC3CCCNC3)cc2)cnc1N)c1c(Cl)ccc(F)c1Cl (centres unmarked) [Example 16, 4-{6-Amino-5-[1-(2,6-dichloro-3-fluorophenyl)ethoxy]pyridin-3-yl}-N-piperidin-3-ylbenzamide] | 0.044 µM | 91% |
| CC(Oc1cc(-c2ccc(C(=O)NCCN)cc2)cnc1N)c1c(Cl)ccc(F)c1Cl (centres unmarked) [Example 17, 4-{6-Amino-5-[1-(2,6-dichloro-3-fluorophenyl)ethoxy]pyridin-3-yl}N-(2-aminoethyl) benzamide] | 0.068 µM | 90% |
| CCNCCNC(=O)c1ccc(-c2cnc(N)c(OC(C)c3c(Cl)ccc(F)c3Cl)c2)cc1 (centres unmarked) [Example 18, 4-{6-Amino-5-[1-(2,6-dichloro-3-fluorophenyl)ethoxy]pyridin-3-yl}-N-[2-(ethylamino)ethyl]benzamide] | 0.036 µM | 90% |
| CC(Oc1cc(-c2ccc(C(=O)N3CCC4(CCNCC4)C3)cc2)cnc1N)c1c(Cl)ccc(F)c1Cl (centres unmarked) [Example 19, 5-[4-(2,8-Diazaspiro[4.5]dec-2-ylcarbonyl)phenyl]-3-[1-(2,6-dichloro-3-fluorophenyl)ethoxy]pyridin-2-amine] | 0.046 µM | 93% |
| CC(Oc1cc(-c2ccc(C(=O)N3CC4CNCC4C3)cc2)cnc1N)c1c(Cl)ccc(F)c1Cl (centres unmarked) [Example 20, 3-[1-(2,6-Dichloro-3-fluorophenyl)ethoxy]-5-[4-(hexahydropyrrolo[3,4-c]pyrrrol-2 (1H)-ylcarbonyl)phenyl]pyridin-2-amine] | 0.026 µM | 93% |
| COc1cc(-c2cnc(N)c(OC(C)c3c(Cl)ccc(F)c3Cl)c2)ccc1C(=O)N1C[C@@H](C)N[C@@H](C)C1 (stereo partly drawn) [Example 23, 3-[1-(2,6-dichloro-3-fluorophenyl)ethoxy]-5-(4-{[(3R,5S)-3,5-dimethylpiperazin-1-yl]carbonyl}-3-methoxyphenyl)pyridin-2-amine] | 0.0272 µM |  |
| COc1cc(-c2cnc(N)c(OC(C)c3c(Cl)ccc(F)c3Cl)c2)ccc1C(=O)N1CCCCC1 (centres unmarked) [Example 24, 3-[1-(2,6-dichloro-3-fluorophenyl)ethoxy]-5-[3-methoxy-4-(piperidin-1-ylcarbonyl)phenyl]pyridin-2-amine] | 1.03 µM |  |
| CC(Oc1cc(-c2ccc(-c3ccno3)cc2)cnc1N)c1c(Cl)ccc(F)c1Cl (centres unmarked) [Example 25, 3-[1-(2,6-dichloro-3-fluorophenyl)ethoxy]-5-(4-isoxazol-5-ylphenyl)pyridin-2-amine] | 0.0877 µM |  |
| COc1cc(-c2cnc(N)c(OC(C)c3c(Cl)ccc(F)c3Cl)c2)ccc1CO (centres unmarked) [Example 26, (4-{6-amino-5-[1-(2,6-dichloro-3-fluorophenyl)ethoxy]pyridin-3-yl}-2-methoxyphenyl) methanol] | 0.0795 µM |  |
